Reference: patent publication US20220259593A1, “CONTROL OF MAMMALIAN GENE DOSAGE USING CRISPR” (The Regents of the University of California, priority 2019, published 2022)

Tested on: K562 CRISPRi cells
Assay: Perturb-seq pooled growth measurement (sgRNA counts, growth phenotype γ, relative activity)
Format: cell-based, human
Conditions: sequencing read counts; for Perturb-seq pooled growth sgRNA counts, d5: 5 days of growth (day seven after transduction); for Perturb-seq pooled growth sgRNA counts, d10: 10 days of growth (day twelve after transduction); for Perturb-seq pooled growth sgRNA counts, T0: T0 = day two after transduction
Source text: Finally, we sought to use intermediate-activity sgRNAs to explore relationships between expression levels of various genes and the resulting cellular phenotypes. To simultaneously measure gene expression levels and obtain rich phenotypes for a variety of sgRNA series, we used Perturb-seq, an experimental strategy that enables matched capture of the transcriptome and the identity of an expressed sgRNA for each individual cell in pools of cells (27, 31-33) (FIG. 12A). […] In addition to the single-cell transcriptomes, we measured bulk growth phenotypes conferred by sgRNAs in these cells.
To measure the growth rate defects conferred by each sgRNA for comparison with the transcriptional phenotypes, samples of 500,000 transduced cells were taken from the same transduced cell population used in the Perturb-seq experiment on days two, seven, and twelve after transduction. Genomic DNA was extracted using the Nucleospin Blood kit (Macherey-Nagel) and sgRNA amplicons were prepared as described previously and above (19), albeit with no genomic DNA digestion or gel purification, and sequenced on HiSeq 4000 as described above for the other screens. Growth phenotypes were calculated by comparing normalized sgRNA abundances at day seven and twelve to those at day two, as described above. […] Relative sgRNA activities measured at day seven (five days of growth) were used to assign sgRNA activities in further analysis.

Row | Substance | Perturb-seq pooled growth sgRNA counts, d5 | Perturb-seq pooled growth sgRNA counts, d10 | Perturb-seq pooled growth sgRNA counts, T0
1 | non-targeting_00089: non-targeting negative control sgRNA, GGGGTGAGGGTCCAATTCGG, SEQ ID NO: 164 (listed as DNA, chemistry not fully specified) [reference compound] | 27748 | 44919 | 10841
2 | RPL9_+_39460483.23-P1P2_04: sgRNA targeting RPL9, GGATGTTTCAGTGCTCGTGG, SEQ ID NO: 53 (listed as DNA, chemistry not fully specified) | 3975 | 4118 | 5237
3 | HSPE1_+_198365089.23-P1P2_03: sgRNA targeting HSPE1, GGTGACTCGCAGTCCGGCCC, SEQ ID NO: 66 (listed as DNA, chemistry not fully specified) | 3034 | 2279 | 7473
4 | RPS18_+_33239917.23-P1P2_00: sgRNA targeting RPS18, GCTGCGATGCCGCTGGATCA, SEQ ID NO: 40 (listed as DNA, chemistry not fully specified) | 1556 | 1535 | 6212
5 | RPS18_+_33239917.23-P1P2_04: sgRNA targeting RPS18, GCTGCGATCCCGCTGGATCA, SEQ ID NO: 44 (listed as DNA, chemistry not fully specified) | 9728 | 13186 | 5132
6 | TUBB_+_30688126.23-P1_10: sgRNA targeting TUBB, GCGGCAGGAAGGTTCAGAGA, SEQ ID NO: 109 (listed as DNA, chemistry not fully specified) | 9877 | 12737 | 7085
7 | HSPE1_+_198365089.23-P1P2_01: sgRNA targeting HSPE1, GGAGACACGCAGTCCGGCCC, SEQ ID NO: 65 (listed as DNA, chemistry not fully specified) | 4228 | 2663 | 9669
8 | non-targeting_00028: non-targeting negative control sgRNA, GGTGGCCTTTGCAATTGGCG, SEQ ID NO: 162 (listed as DNA, chemistry not fully specified) [reference compound] | 20289 | 35652 | 8871
9 | MTOR_+_11322547.23-P1P2_00: sgRNA targeting MTOR, GGGCAGGGGGCCTGAAGCGG, SEQ ID NO: 146 (listed as DNA, chemistry not fully specified) | 6328 | 3144 | 17632
10 | HSPA5_+_128003624.23-P1P2_08: sgRNA targeting HSPA5, GAGCCGAGTGGGCGACGGTG, SEQ ID NO: 90 (listed as DNA, chemistry not fully specified) | 3005 | 3487 | 10148
11 | TUBB_+_30688126.23-P1_01: sgRNA targeting TUBB, GCAGCAGGAAGGTTCTGAGA, SEQ ID NO: 106 (listed as DNA, chemistry not fully specified) | 1319 | 962 | 7125
12 | RPS14_+_149829238.23-P1P2_08: sgRNA targeting RPS14, GAGGCCCGGGCTCGACAATC, SEQ ID NO: 50 (listed as DNA, chemistry not fully specified) | 11681 | 17976 | 4488
13 | non-targeting_01040: non-targeting negative control sgRNA, GTACGGCATGGCGCACTGCG, SEQ ID NO: 170 (listed as DNA, chemistry not fully specified) [reference compound] | 0 | 0 | 0
14 | CDC23_−_137548987.23-P1P2_02: sgRNA targeting CDC23, GACAGCTACCGGGACCATGG, SEQ ID NO: 98 (listed as DNA, chemistry not fully specified) | 832 | 1192 | 7014
15 | EIF2S1_−_67827080.23-P1P2_00: sgRNA targeting EIF2S1, GAGCGAAGCGCACGCTGAGG, SEQ ID NO: 136 (listed as DNA, chemistry not fully specified) | 1123 | 1318 | 5718
16 | ATP5E_−_57607036.23-P1P2_04: sgRNA targeting ATP5E, GGTGTCCAGGAGCACTCTGT, SEQ ID NO: 154 (listed as DNA, chemistry not fully specified) | 13256 | 14860 | 7209
17 | BCR_+_23523092.23-P1P2_07: sgRNA targeting BCR, GCGCGCGGGGCTCGTCTCAG, SEQ ID NO: 126 (listed as DNA, chemistry not fully specified) | 1744 | 2183 | 8081
18 | CAD_+_27440280.23-P1P2_06: sgRNA targeting CAD, GGCTGGAGAGTAGCCGGGCG, SEQ ID NO: 104 (listed as DNA, chemistry not fully specified) | 4967 | 4365 | 6199
19 | non-targeting_00217: non-targeting negative control sgRNA, GTGAACTCAAAAATCCCGAC, SEQ ID NO: 165 (listed as DNA, chemistry not fully specified) [reference compound] | 25185 | 42962 | 10286
20 | BCR_+_23523092.23-P1P2_00: sgRNA targeting BCR, GCGCGCGGGGCCCGTCTCAG, SEQ ID NO: 125 (listed as DNA, chemistry not fully specified) | 2250 | 2333 | 9644
21 | GNB2L1_+_180670873.23-P1P2_02: sgRNA targeting GNB2L1, GTGCAAGACGGCGGCAGGAG, SEQ ID NO: 59 (listed as DNA, chemistry not fully specified) | 6216 | 7618 | 3839
22 | POLR1D_+_28196016.23-P1_03: sgRNA targeting POLR1D, GGTAAGCAAGGACCGACCGA, SEQ ID NO: 75 (listed as DNA, chemistry not fully specified) | 2365 | 933 | 10266
23 | RAN_+_131356438.23-P1P2_03: sgRNA targeting RAN, GGGGGTCGCTGCGCTTAGGG, SEQ ID NO: 71 (listed as DNA, chemistry not fully specified) | 6698 | 6816 | 5056
24 | DUT_+_48624411.23-P1P2_07: sgRNA targeting DUT, GCGAGCGAGGAGCCCACCGG, SEQ ID NO: 113 (listed as DNA, chemistry not fully specified) | 1509 | 1157 | 4601
25 | EIF2S1_−_67827080.23-P1P2_07: sgRNA targeting EIF2S1, GAGCGAAGCGCTCGCTGAGG, SEQ ID NO: 140 (listed as DNA, chemistry not fully specified) | 13281 | 22309 | 6931
26 | RPS15_−_1438413.23-P1P2_07: sgRNA targeting RPS15, GACCAAAGCGGTCTCTTCTG, SEQ ID NO: 61 (listed as DNA, chemistry not fully specified) | 3595 | 4631 | 6337
27 | HSPE1_+_198365089.23-P1P2_14: sgRNA targeting HSPE1, GGAGACTCGCAGTCCTGCCC, SEQ ID NO: 68 (listed as DNA, chemistry not fully specified) | 6501 | 6498 | 4808
